From the NIST ThermoML archive (doi:10.1016/j.jct.2017.01.019)
Numbers after ± are expanded uncertainties.

Conditions: Liquid, Closed cell (Static) method

| Compound | vapor or sublimation pressure (243.15 K) [kPa] | vapor or sublimation pressure (248.15 K) [kPa] | vapor or sublimation pressure (253.15 K) [kPa] | vapor or sublimation pressure (258.15 K) [kPa] | vapor or sublimation pressure (263.15 K) [kPa] | vapor or sublimation pressure (268.15 K) [kPa] | vapor or sublimation pressure (273.15 K) [kPa] | vapor or sublimation pressure (278.15 K) [kPa] | vapor or sublimation pressure (283.15 K) [kPa] | vapor or sublimation pressure (288.15 K) [kPa] | vapor or sublimation pressure (293.15 K) [kPa] |
| --- | --- | --- | --- | --- | --- | --- | --- | --- | --- | --- | --- |
| FCC(F)(F)F [1,1,1,2-tetrafluoroethane] | 84.5 ± 1.6 | 106.4 ± 1.6 | 132.7 ± 1.6 | 163.9 ± 1.6 | 200.6 ± 1.6 | 243.3 ± 1.6 | 292.7 ± 1.7 | 349.6 ± 1.7 | 414.3 ± 1.7 | 488.2 ± 1.8 | 570.7 ± 1.8 |
| N [ammonia] | 119.7 ± 1.6 | 151.7 ± 1.6 | 190.2 ± 1.6 | 236.4 ± 1.6 | 290.7 ± 1.7 | 354.8 ± 1.7 | 429.3 ± 1.7 | 515.5 ± 1.8 | 615.1 ± 1.8 | 728.5 ± 1.9 | 857.1 ± 2 |
